From patent US7410635B2 (priority 2003, dated 2008)

Conditions: pH 3

**Q.** For `C=CCC1(CC(C)C)C(=O)NC(=O)NC1=O` [Butalbital, 5-(2-Methylpropyl)-5-(2-propenyl)-2,4,6(1H,3H,5H) -pyrim idinetrione], which average degradation is on record?
**A.** 1.2%
